# “And” between values parts separate entries of the source, which are not always exact repeats. Equal entries are not always repeated.
# Tests used:
# [1] = system: canine carotid artery thrombosis model; assay: Reoccluding canine carotid artery thrombosis model; assay type: in vivo
# Text: The model of carotid artery thrombosis in the anesthetized canine described is a modification of one developed for the study of experimentally-induced coronary artery thrombosis [Romson, J. L. et al., Thromb. Res. 17:841 (1980)]. The experimental procedure results in the formation of a platelet rich intravascular thrombus at the site of an electrolytically-induced endothelial lesion in proximity to a distal arterial stenosis. The carotid artery is selected for the experimental model, thereby allowing one vessel to be used as a control and the other to be used after administration of the thrombolytic and antithrombotic therapy. APSAC (anisoylated plasminogen streptokinase activator complex) has been used as the thrombolytic agent successfully in this model. […] The lytic-antithrombotic combination of agents may then be administered to only one of the occluded vessels; this allows for an internal control and eliminates those animals that may not form thrombi due to causes unrelated to the vessel wall injury and subsequent occlusive thrombus formation, i.e., low circulating platelet counts, enhanced spontaneous thrombolysis, presence of heart worms, etc. Parameters which are recorded include repeated measures of: phasic and mean carotid artery blood flow velocity using an ultrasonic flow probe, time to thrombotic occlusion, time to recannulization, ex vivo platelet aggregation, prothrombin time, thrombin time, activated partial thromboplastin time, red cell and white cell counts, hematocrit, EKG profile and body temperature, before and after administration of APSAC or APSAC plus CN to separate groups of animals.
# Conditioned male mongrel dogs (8-10 kg) have been used for all in vivo studies. Dogs are anesthetized with sodium pentobarbital, intubated and allowed to breath room air under positive pressure respiration. Arterial blood gasses and pH determinations are made every 45 minutes and appropriate adjustments made to maintain the blood gasses and arterial pH within normal limits. Both common carotid arteries and the right internal jugular vein are exposed. A catheter is inserted into the jugular vein for blood sampling and administration of the test drug. Arterial blood pressure is monitored from the cannulated femoral artery with the use of a blood pressure transducer. A Doppler flow probe is placed on each common carotid artery proximal to both the point of insertion of the intraarterial electrode and the mechanical constrictor. […] Blood flow velocity in the carotid vessels is monitored continuously. […]
# Electrolytic injury to the intimal surface of each carotid vessel is accomplished with the use of an intravascular electrode. […] The current delivered to each vessel is monitored continuously and maintained at 300 μA. […]
# [2] = system: acute thrombotic reocclusion; settings: added to heparin plus tPA; cited from earlier work
# [3] = system: MDA-MB-435 cells; assay: Phosphotyrosine immunoblot, MDA-MB-435 cells; assay type: cell-based, human
# Experimental: (§1) Cell culture, preparation and stimulation—T24 cells were maintained in RPMI 1640 medium containing 5% fetal bovine serum, and MDA-MB-435 and 293 cells were maintained in Dulbecco's modified Eagle's medium with 10% serum at 37° C. in 5% CO2. Cells were washed with phosphate-buffered saline (PBS) and starved in the appropriate serum-free medium for 6 h at 37° C. Cells were detached by brief treatment with 0.05% trypsin/0.02% EDTA in PBS and collected by centrifugation, resuspended in soybean trypsin inhibitor (1 mg/ml in serum-free medium), and washed in 2% bovine serum albumin/serum-free medium. Cells were maintained in suspension for 1 h in 2% bovine serum albumin/serum-free medium at 37° C. with end-over-end agitation. Quiescent cells (3×10^6/ml) were treated with disintegrins or other reagents while in suspension, or were allowed to adhere to Matrigel (Becton Dickinson, Bedford, Mass.) diluted 1:100 with serum-free medium during treatment.
# Lysate preparation and immunoprecipitation—Suspended and adherent cells were washed twice with cold PBS and lysed in cold lysis buffer (50 mM Tris, pH 8.0, 150 mM NaCl, 1% Nonidet P-40, 0.5% deoxycholate, 0.1% SDS, protease inhibitor cocktail, 1 mM sodium pyrophosphate, 1 mM sodium orthovanadate, 50 mM sodium fluoride). After 10-15 min incubation on ice, insoluble material was removed by centrifugation at 14,000 RPM in a microcentrifuge for 15 min. Supernatants were collected and total protein concentrations standardized by the BCA protein assay (Pierce, Rockford, Ill.). Immunoprecipitation was carried out by incubating whole cell lysates (200 μg total protein) with 1.25 μg anti-FAK or anti-CAS mAb 4-6 h at 4° C. followed by 20 μl protein G-agarose overnight at 4° C. Immunoprecipitates were washed 4 times in lysis buffer without inhibitors and dissociated by adding SDS-PAGE sample buffer and boiling 5 min. Whole cell lysates (30 μg total protein) or immunoprecipitates were resolved by 7.5% SDS-polyacrylamide gel electrophoresis and transferred to nitrocellulose membranes. […]
# [4] = system: platelets; settings: measured by e.g. serotonin release from dense granules; cited from earlier work
# [5] = system: coronary artery thrombosis; settings: with recombinant tPA and heparin; cited from earlier work
# [6] = system: T24 cells; assay: Phosphotyrosine immunoblot, T24 cells; assay type: cell-based, human; settings: pretreated 30 min, 10 nM contortrostatin
# Experimental: as §1
# Lysate preparation and immunoprecipitation—Suspended and adherent cells were washed twice with cold PBS and lysed in cold lysis buffer (50 mM Tris, pH 8.0, 150 mM NaCl, 1% Nonidet P-40, 0.5% deoxycholate, 0.1% SDS, protease inhibitor cocktail, 1 mM sodium pyrophosphate, 1 mM sodium orthovanadate, 50 mM sodium fluoride). […]
# [7] = system: MDA-MB-435 cells; assay: Binding of MDA-MB-435 cells to immobilized CN; assay type: cell-based, human; settings: CN at 0.1 μg/well; read-out: IC50 for blocking binding of MDA-MB-435 cells to immobilized CN
# Experimental: The effect of CN on binding of highly metastatic human breast cancer cells, MDA-MB-435 cell line, to ECM proteins was examined. Human fibronectin and vitronectin were immobilized in the wells of 96-well microtiter plates. […] In a variation of the above experiments, CN was immobilized. […] Referring to FIGS. 12 and 13, varying concentrations of GRGDSP (FIG. 12) or EDTA (FIG. 13) were used to inhibit binding of human mammary carcinoma cells to immobilized CN. CN was at 0.1 μg/well. The vertical line at each data point indicates the y-axis error bar. All experiments were conducted as three sets of triplicates for each data point.
compound,measurement,setting,value
anisoylated plasminogen streptokinase activator complex [APSAC],"RCA Thrombus, weight of residual thrombus, individual dog","[1]; Dog # 1-6, listed as APSAC Control",27.3 mg and 47.6 mg and 90.5 mg and 60.1 mg and 67.5 mg and 78.5 mg
same,carotid artery patency after infusion,"[1]; dog, in vivo",reoccluded and remained closed for the duration of the study
same,"RCA Thrombus, weight of residual thrombus, Mean",[1]; group mean,61.9 mg
same,Thrombus weight per kg (dog weight),[1]; group mean,4.1
echistatin (QCESGPCCRNCKFLKEGTICKRARGDDMDDYCNGKTCDCPRNPHKGPAT) [reference compound],incidence of acute thrombotic reocclusion,[2],dramatic reductions in the incidence of acute thrombotic reocclusion
same,effect on contortrostatin (10 nM)-induced tyrosine phosphorylation,"[3]; 1 μM, added simultaneously, 10 min",completely abrogated
same,effect alone on tyrosine phosphorylation,[3]; concentrations up to 1 μM,no effect on tyrosine phosphorylation
applaggin,platelet release,[4],also inhibits platelet release
kistrin,effective dose sufficient to prevent reocclusion,[5],4 µg/kg/min
"Cc1ccc(-c2nn(C(C)(C)C)c3ncnc(N)c23)cc1 [PP1, reference compound]",concentration for complete elimination of contortrostatin-induced signals,[6],100 µM
same,concentration for complete inhibition of contortrostatin-induced tyrosine phosphorylation,"[3]; pretreated 30 min, 10 nM contortrostatin",10 µM
O=C(O)CN(CCN(CC(=O)O)CC(=O)O)CC(=O)O [EDTA],IC50,[7],800 µM

# — patent US6710030B1, “Contortrostain (CN) and methods for its use in preventing metastasis and other conditions” (University of Southern California, priority 1993, dated 2004)
